# How the values were obtained:
# Staphylococcus aureus [1] = assay: Antibacterial activity against methicillin-resistant Staphylococcus aureus CMAH 0430 after 24 hrs by two fold dilution method; type: functional
# Staphylococcus aureus [2] = assay: Antibacterial activity against methicillin-resistant Staphylococcus aureus CMAH 0504 after 24 hrs by two fold dilution method; type: functional
# Klebsiella aerogenes = assay: Antibacterial activity against Enterobacter aerogenes CMCC(B) 45103 after 24 hrs by two fold dilution method; type: functional
# Micrococcus luteus = assay: Antimicrobial activity against Micrococcus luteus CMCC(B) 28001 after 24 hrs by two fold dilution method; type: functional
# Proteus vulgaris = assay: Antimicrobial activity against Proteus vulgaris CMCC(B) 49001 after 24 hrs by two fold dilution method; type: functional
# Pseudomonas aeruginosa = assay: Antimicrobial activity against Pseudomonas aeruginosa ATCC 27853 after 24 hrs by two fold dilution method; type: functional; conditions: ATCC 27853, 24 h
# Bacillus subtilis = assay: Antimicrobial activity against Bacillus subtilis after 24 hrs by two fold dilution method; type: functional
# Staphylococcus aureus [3] = assay: Antibacterial activity against methicillin-susceptible Staphylococcus aureus ATCC 25923 after 24 hrs by two fold dilution method; type: functional; conditions: ATCC 25923, 24 h
# Escherichia coli = assay: Antimicrobial activity against Escherichia coli ATCC 25922 after 24 hrs by two fold dilution method; type: functional; conditions: ATCC 25922, 24 h
# Candida albicans [4] = assay: Antifungal activity against Candida albicans CMAH 0501 after 48 to 72 hrs by broth microdilution method; type: functional
# Staphylococcus aureus [5] = assay: Antibacterial activity against methicillin-resistant Staphylococcus aureus CMAH 0515 after 24 hrs by two fold dilution method; type: functional
# [6] = Toxicity in human erythrocytes assessed as haemolysis upto 4000 ug/mL; type: cell-based, Erythrocyte; conditions: read-out: Activity
# Aspergillus sp. = assay: Antifungal activity against Aspergillus sp. after 48 to 72 hrs by broth microdilution method; type: functional; conditions: Aspergillus sp.
# Candida albicans [7] = assay: Antifungal activity against Candida albicans CMAH 0507 after 48 to 72 hrs by broth microdilution method; type: functional
# Saccharomyces cerevisiae = assay: Antimicrobial activity against Saccharomyces cerevisiae after 48 to 72 hrs by broth microdilution method; type: functional
# Candida albicans [8] = assay: Antifungal activity against Candida albicans CMAH 0572 after 48 to 72 hrs by broth microdilution method; type: functional
# Candida albicans [9] = assay: Antifungal activity against Candida albicans CMAM 0577 after 48 to 72 hrs by broth microdilution method; type: functional
# Candida albicans [10] = assay: Antifungal activity against Candida albicans CMAM 0592 after 48 to 72 hrs by broth microdilution method; type: functional
# Candida albicans [11] = assay: Antifungal activity against Candida albicans CMAM 0594 after 48 to 72 hrs by broth microdilution method; type: functional
# Candida albicans [12] = assay: Antifungal activity against Candida albicans CMAH 0503 after 48 to 72 hrs by broth microdilution method; type: functional
# Candida albicans [13] = assay: Antifungal activity against Candida albicans CMAH 0527 after 48 to 72 hrs by broth microdilution method; type: functional
# Cryptococcus neoformans = assay: Antifungal activity against Cryptococcus neoformans ATCC 90112 after 48 to 72 hrs by broth microdilution method; type: functional
# Candida albicans [14] = assay: Antifungal activity against fluconazole-resistant Candida albicans CMAM 0597 after 48 to 72 hrs by broth microdilution method; type: functional
# Rhodotorula glutinis = assay: Antimicrobial activity against Rhodotorula glutinis SYM 2209 after 48 to 72 hrs by broth microdilution method; type: functional
# Candida albicans [15] = assay: Antifungal activity against Candida albicans CMAH 0511 after 48 to 72 hrs by broth microdilution method; type: functional
# Candida albicans [16] = assay: Antifungal activity against fluconazole-resistant Candida albicans CMAH 0520 after 48 to 72 hrs by broth microdilution method; type: functional
# Candida albicans [17] = assay: Antifungal activity against Candida albicans ATCC 10231 after 48 to 72 hrs by broth microdilution method; type: functional
SMILES,MIC (Staphylococcus aureus [1]),MIC (Staphylococcus aureus [2]),MIC (Klebsiella aerogenes),MBC (Micrococcus luteus),MIC (Micrococcus luteus),MBC (Proteus vulgaris),MIC (Proteus vulgaris),MIC (Pseudomonas aeruginosa),MBC (Bacillus subtilis),MIC (Bacillus subtilis),MBC (Staphylococcus aureus [3]),MIC (Staphylococcus aureus [3]),MBC (Escherichia coli),MIC (Escherichia coli),MIC (Candida albicans [4]),MIC (Staphylococcus aureus [5]),MBC (Klebsiella aerogenes),MBC (Pseudomonas aeruginosa),other results
CC1(C)S[C@@H]2[C@H](NC(=O)[C@H](N)c3ccccc3)C(=O)N2[C@H]1C(=O)O [AMPICILLIN],> 64 µg/mL,> 64 µg/mL,> 64 µg/mL,0.5 µg/mL,0.3 µg/mL,0.5 µg/mL,0.3 µg/mL,> 64 µg/mL,0.25 µg/mL,0.3 µg/mL,0.5 µg/mL,0.25 µg/mL,64 µg/mL,32 µg/mL,32 µg/mL,> 64 µg/mL,–,–,MFC (Candida albicans [4]): 128 µg/mL
O=C(N[C@H](CO)[C@H](O)c1ccc([N+](=O)[O-])cc1)C(Cl)Cl [CHLORAMPHENICOL],1 µg/mL,2 µg/mL,2 µg/mL,4 µg/mL,2 µg/mL,0.25 µg/mL,0.25 µg/mL,32 µg/mL,2 µg/mL,2 µg/mL,1 µg/mL,1 µg/mL,4 µg/mL,2 µg/mL,–,2 µg/mL,2 µg/mL,64 µg/mL,hemolysis [6]: 14%; MBC (Staphylococcus aureus [1]): 2 µg/mL; MBC (Staphylococcus aureus [2]): 2 µg/mL; MBC (Staphylococcus aureus [5]): 4 µg/mL
OC(Cn1cncn1)(Cn1cncn1)c1ccc(F)cc1F [FLUCONAZOLE],–,–,–,–,–,–,–,–,–,–,–,–,–,–,16 µg/mL,–,–,–,MIC (Aspergillus sp.): > 64 µg/mL; MIC50 (Aspergillus sp.): > 64 µg/mL; MIC90 (Aspergillus sp.): > 64 µg/mL; MIC (Candida albicans [7]): 64 µg/mL; MIC (Saccharomyces cerevisiae): 4 µg/mL; MIC (Candida albicans [8]): 64 µg/mL; MIC (Candida albicans [9]): 64 µg/mL; MIC (Candida albicans [10]): 32 µg/mL; MIC (Candida albicans [11]): 64 µg/mL; MIC (Candida albicans [12]): 32 µg/mL; MIC (Candida albicans [13]): 64 µg/mL; MIC (Cryptococcus neoformans): 16 µg/mL; MIC (Candida albicans [14]): > 64 µg/mL; MIC (Rhodotorula glutinis): > 64 µg/mL; MIC (Candida albicans [15]): 16 µg/mL; MIC (Candida albicans [16]): > 64 µg/mL; MIC (Candida albicans [17]): 8 µg/mL
NC[C@H]1O[C@H](O[C@H]2[C@H](O)[C@@H](O[C@H]3O[C@H](CO)[C@@H](O)[C@H](N)[C@H]3O)[C@H](N)C[C@@H]2N)[C@H](O)[C@@H](O)[C@@H]1O [KANAMYCIN],> 64 µg/mL,> 64 µg/mL,0.25 µg/mL,0.25 µg/mL,0.25 µg/mL,0.5 µg/mL,0.25 µg/mL,64 µg/mL,4 µg/mL,4 µg/mL,0.5 µg/mL,0.25 µg/mL,0.25 µg/mL,0.25 µg/mL,–,> 64 µg/mL,0.25 µg/mL,> 128 µg/mL,–

# Source: ChEMBL document CHEMBL1147026, “Synthesis of pseudopeptides based L-tryptophan as a potential antimicrobial agent” (Bioorg Med Chem Lett, 2007)
